From US20040053424A1, “Continuous-flow homogeneous biochemical assays based on mass spectrometric detection of known ligands” (priority 2000, published 2004)

Assays:
streptavidin = streptavidin (Streptomyces avidinii, UniProt P22629); assay: homogeneous on-line mass spectrometric biochemical assay, streptavidin / fluorescein-biotin reporter; assay type: binding; settings: for effect of analyte injection on binding of reporter fluorescein-biotin to streptavidin (SIM MS signal at m/z 390): equal concentrations injected, 32 nmol/l streptavidin, 96 nmol/l fluorescein-biotin, FIG. 2
streptavidin, sequence (P22629 25-183): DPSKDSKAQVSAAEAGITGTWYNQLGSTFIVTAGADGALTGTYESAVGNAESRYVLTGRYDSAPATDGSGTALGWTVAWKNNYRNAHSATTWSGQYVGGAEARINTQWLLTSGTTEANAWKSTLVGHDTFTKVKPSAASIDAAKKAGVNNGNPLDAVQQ
Description: Streptavidin is a well-known affinity protein with a high affinity for biotin and biotinylated compounds. To a carrier solution consisting of 10 mmol/L ammonium formate/methanol (90:10, v/v) pumped at a flow rate of 50 μl/min a solution of 32 nmol/l streptavidin dissolved in 10 mmol/L ammonium formate was added at a flow rate of 50 μl/min. The mixture was pumped through a knitted […]. poly(tetrafluoroethylene) reaction coil with an internal volume of 17 μl. Subsequently, a solution of 96 nmol/l fluorescein-biotin dissolved in 10 mmol/L ammonium formate/methanol (90:10, v/v) was added at a flow rate of 100 μl/min. The mixture was then pumped through a knitted […]. poly(tetrafluoroethylene) reaction coil with an internal volume of 33 μl and subsequently introduced into a mass spectrometer equipped with an electrospray ionization (ESI) source. Mass spectrometry was operated in selected-ion monitoring (SIM) in the positive-ion (PI) mode on [M+H]+and on one or more intense fragment ions. The ESI source conditions for the streptavidin/biotin system: source temperature, 80° C.; capillary voltage, 3.2 kV. The sampling cone voltage was 30 and 60 V for biotin and fluorescein-labeled biotin, respectively.
At point 1, only carrier buffer was pumped into the mass spectrometer providing a reference background signal. […] At point 3, the streptavidin pump was switched on.

[1] = system: fab fragments of anti-digoxigenin antibodies (fab anti-digoxigenin); assay: homogeneous on-line mass spectrometric biochemical assay, fab anti-digoxigenin / digoxigenin reporter; assay type: binding; settings: 100 nmol/l fab anti-digoxigenin, 200 nmol/l digoxigenin; FIG. 3, point 4
Description: To a carrier solution consisting of 10 mmol/L ammonium formate/methanol (90:10, v/v) pumped at a flow rate of 50 μl/min a solution of 100 nmol/l fab anti-digoxigenin dissolved in 10 mmol/L ammonium formate was added at a flow rate of 50 μl/min. The mixture was pumped through a knitted 300 μm i.d. poly(tetrafluoroethylene) reaction coil with an internal volume of 65 μl. Subsequently, a solution of 200 nmol/l digoxigenin dissolved in 10 mmol/L ammonium formate/methanol (90:10, v/v) is added at a flow rate of 100 ill/min. The mixture was then pumped through a knitted 300 μm i.d. poly(tetrafluoroethylene) reaction coil with an internal volume of 33 μl and subsequently introduced into a mass spectrometer equipped with an electrospray ionization (ESI) source. Mass spectrometry was operated in selected-ion monitoring (SIM) in the positive-ion (PI) mode on [M+H]+and on one or more intense fragment ions.
At point 1, only carrier buffer was pumped into the mass spectrometer providing a reference background signal. At point 2, the digoxigenin pump was switched on leading to an increase of the selected-ion monitoring MS signal at m/z 408 (the ammonium adduct of digoxigenin). At point 3, the fab anti-digoxigenin pump was switched on.

Compound	effect of analyte injection on binding of reporter fluorescein-biotin to streptavidin (SIM MS signal at m/z 390) (streptavidin)	also measured
N[C@@H](CCCCNC(=O)CCCC[C@@H]1SC[C@@H]2NC(=O)N[C@@H]21)C(=O)O [N-biotin-L-lysine]	capable to prevent the binding of the reporter molecule, fluorescein-biotin, to streptavidin	
C[C@H]1O[C@@H](O[C@H]2[C@@H](O)C[C@H](O[C@H]3[C@@H](O)C[C@H](O[C@H]4CC[C@@]5(C)[C@H](CC[C@@H]6[C@@H]5C[C@@H](O)[C@]5(C)[C@@H](C7=CC(=O)OC7)CC[C@]65O)C4)O[C@@H]3C)O[C@@H]2C)C[C@H](O)[C@@H]1O [digoxin]		effect of injection on free fab anti-digoxigenin binding sites / free digoxigenin concentration (SIM MS signal at m/z 408) [1]: decrease of free fab anti-digoxigenin binding sites and an increase of the free digoxigenin concentration
NNC(=O)CCCCCNC(=O)CCCC[C@@H]1SC[C@@H]2NC(=O)N[C@@H]21 [N-biotinyl-6-aminocaprioc hydrazide]	capable to prevent the binding of the reporter molecule, fluorescein-biotin, to streptavidin	
fluorescein-biotin		effect of adding streptavidin on free reporter ligand (SIM MS signal at m/z 390) (streptavidin; FIG. 1, point 3): decrease of the concentration of free fluorescein-biotin
O=C(O)CCCC[C@@H]1SC[C@@H]2NC(=O)N[C@@H]21 [biotin]	capable to prevent the binding of the reporter molecule, fluorescein-biotin, to streptavidin	effect of injection on free streptavidin binding sites / free fluorescein-biotin concentration (SIM MS signal at m/z 390) (streptavidin; FIG. 1, point 4): decrease of free streptavidin binding sites and an increase of the free fluorescein-biotin concentration
